Results on two compounds are retold here after patent publication US20100297194A1, “FORMULATION FOR ORAL ADMINISTRATION OF APOPTOSIS PROMOTER” (priority 2009, published 2010).

Like-named read-outs stand apart in the source and are kept apart here. A value given as a limit tells only on which side of the number the result lay.

The conditions of data set [1]: rat; 2 mg/ml solution in PEG-400/DMSO; cited from earlier work.
Data set [2] can be described thus: drug solubility in ternary excipient systems (Example 2). The format is physicochemical. On the set-up: key: ✓: vehicle miscible, or drug fully dissolved in vehicle; X: vehicle immiscible or miscible but turbid, or residual solids present (due to undissolved drug or precipitation). As to conditions: 10% salt, 20% free base, listed as ABT-263 free base. The text has this:
Solvents evaluated included Labrafil M 1944 CS™, Imwitor 742™ oleic acid, Capmul PG-8™, Capmul PG-12™, Lauroglycol 90™ and Phosal 53 MCT™. Surfactants evaluated included Tween™ 80, Cremophor RH40™, Gelucire 44/14™ and Labrasol™.

The conditions of data set [3]: monkey; similar solution in PEG-400/DMSO; cited from earlier work.
A short description of data set [4]: solubility in lipid solvents (Example 1).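 Also: solubility in mg/g.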 As to conditions: ambient conditions. The data set is classed as physicochemical. The protocol:
Solubility of ABT-263 parent (free base, crystalline Form I) and ABT-263 bis-HCl salt was tested in a variety of lipid solvents and solvent mixtures in ambient conditions. “PE-91” is Phosal 53 MCT™+ethanol, 9:1 by volume. “LOT-343” is Labrafil M 1944 CS™+oleic acid+Tween 80™, 30:40:30 by weight.
In some cases, indicated in Table 4 by an asterisk (*), solubility was initially high but precipitation occurred upon standing.

Data set [5] can be described thus: oral bioavailability in a rat model. Particulars: in vivo, in 90% phosphatidylcholine+medium chain triglycerides 53/29 and 10% ethanol.

Take `CC1(C)CCC(c2ccc(Cl)cc2)=C(CN2CCN(c3ccc(C(=O)NS(=O)(=O)c4ccc(N[C@H](CCN5CCOCC5)CSc5ccccc5)c(S(=O)(=O)C(F)(F)F)c4)cc3)CC2)C1` [ABT-263, N-(4-(4-((2-(4-chlorophenyl)-5,5-dimethyl-1-cyclohex-1-en-1-yl)methyl)piperazin-1-yl)benzoyl)-4-(((1R)-3-(morpholin-4-yl)-1-((phenylsulfanyl)methyl)propyl)amino)-3-((trffluoromethyl)sulfonyl)benzene-sulfonamide]: the oral bioavailability result in data set [1] and in data set [3] was “around 20%” each time. Moreover, the ABT-263 solubility entry in data set [2] (ILC (Imwitor 742/Labrafil M 1944 CS/Cremophor RH40) 50:40:10 by weight), in data set [2] (ILC (Imwitor 742/Labrafil M 1944 CS/Cremophor RH40) 60:30:10 by weight), in data set [2] (ILL (Imwitor 742/Labrafil M 1944 CS/Labrasol) 40:40:20 by weight), in data set [2] (ILL (Imwitor 742/Labrafil M 1944 CS/Labrasol) 50:30:20 by weight), in data set [2] (ILL (Imwitor 742/Labrafil M 1944 CS/Labrasol) 50:40:10 by weight) and in data set [2] (ILL (Imwitor 742/Labrafil M 1944 CS/Labrasol) 60:30:10 by weight) was “X” throughout. The ABT-263 solubility entry in data set [2] (LIT (Labrafil M 1944 CS/Imwitor 742/Tween 80) 30:40:30 by weight), in data set [2] (LIT (Labrafil M 1944 CS/Imwitor 742/Tween 80) 40:30:30 by weight), in data set [2] (LLL (Lauroglycol 90/Labrafil M 1944 CS/Labrasol) 50:40:10 by weight) and in data set [2] (LLL (Lauroglycol 90/Labrafil M 1944 CS/Labrasol) 60:30:10 by weight) was “X” each time. Also, the Solubility is more than 226 mg/g in data set [4] (in Cremophor RH40); more than 479 mg/g in data set [4] (in LOT-343 (Labrafil M 1944 CS+oleic acid+Tween 80 30:40:30 by weight)); more than 265 mg/g in data set [4] (in Labrafil M 1944 CS, listed as ABT-263 parent); more than 290 mg/g in data set [4] (in Labrafil M 2125 CS, listed as ABT-263 parent); more than 242 mg/g in data set [4] (in Labrasol, listed as ABT-263 parent); 150 to 200 mg/g in data set [4] (in Lipoid S75 MCT, listed as ABT-263 parent). Also, the Solubility in data set [4] (in Miglyol 810, listed as ABT-263 parent) is given as less than 76 mg/g; in data set [4] (in PE-91 (Phosal 53 MCT+ethanol 9:1 by volume), listed as ABT-263 parent), more than 250 mg/g; in data set [4] (in PEG-400, listed as ABT-263 parent) it was more than 200 mg/g; in data set [4] (in Phosal 53 MCT), more than 300 mg/g; in data set [4] (in Tween 20, listed as ABT-263 parent), more than 256 mg/g; in data set [4] (in Tween 80, listed as ABT-263 parent) it was more than 256 mg/g. Also, the Solubility is reported as less than 86 mg/g in data set [4] (in corn oil, listed as ABT-263 parent); more than 514 mg/g in data set [4] (in oleic acid, listed as ABT-263 parent); more than 231 mg/g in data set [4] (in poloxamer 124, listed as ABT-263 parent); less than 75 mg/g in data set [4] (in sesame oil, listed as ABT-263 parent).

With `CN(C)CC[C@H](CSc1ccccc1)Nc1ccc(S(=O)(=O)NC(=O)c2ccc(N3CCN(Cc4ccccc4-c4ccc(Cl)cc4)CC3)cc2)cc1[N+](=O)[O-]` [ABT-737, N-(4-(4-((4′-chloro-(1,1′-biphenyl)-2-yl)methyl)piperazin-1-yl)benzoyl)-4-(((1R)-3-(dimethylamino)-1-((phenylsulfanyl)methyl)propyl)amino)-3-nitrobenzenesulfonamide], the bioavailability (in general, dose-corrected exposure relative to a reference, in per cent) in data set [5] is 3.3%.
